The values that follow come from PubChem BioAssay AID1996.

Molecules are shown by their SMILES. In brackets after ≈: the same amount, converted by molar mass. A value given as a limit tells only on which side of the number the result lay.

For the series the following is noted: buffer; pH 7.4; 200.0 µM.
Turning to `C=CCNC(=O)/C(C#N)=C/c1ccc(C(=O)O)cc1`, the solubility (kinetic) (as a rule, solubility judged after dilution from a stock solution rather than from solid) was over 38.4 µg/mL.
Next, `CCCc1c(C)nc(-c2ccc(C)cc2)nc1OC(=O)N(C)C`: 27.3 µg/mL (≈ 87.1 µM).
Next, `Cc1ccc(S(=O)(=O)N2CCOCC2)cc1C(=O)Nc1nc(-c2ccccn2)cs1`: 23.9 µg/mL (≈ 53.8 µM); `Cc1cccc(Nc2ccncc2S(=O)(=O)NC(=O)NC(C)C)c1`: over 52.3 µg/mL.
Next, `C/C(=N\O)c1ccc(Cl)cc1Cl`: 22.9 µg/mL (≈ 112 µM); `COc1ccc(C)cc1NC(=O)NC1CCCc2ccccc21` (stereo unspecified): under 0.3 µg/mL; `Cn1nc(C(F)(F)F)c(-c2ccccc2)c1NC(=O)CSCC(=O)O`: over 56 µg/mL.
Turning to `COc1cccc(C(=O)OCC(=O)Nc2cc(C)on2)c1OC`, the kinetic solubility was over 48 µg/mL.
Next, `Cc1noc(/C=C/c2ccccn2)c1[N+](=O)[O-]`: 19.3 µg/mL (≈ 83.5 µM); `COc1cccc(NC(=S)N2CCC(Cc3ccccc3)CC2)c1`: 5.5 µg/mL (≈ 16.2 µM); `COc1ccc(C(=O)C2CCCN(C(=O)c3cnsn3)C2)c(C)c1` (stereo unspecified): 40 µg/mL (≈ 116 µM).
Next, `O=C(Cc1c(F)cccc1Cl)OCC(=O)N1CCN(c2ccccc2)CC1`: 39.6 µg/mL (≈ 101 µM); `Cc1ccc(NS(=O)(=O)c2cccs2)c(C)c1`: 39.1 µg/mL (≈ 146 µM).
Next, `COc1cc(NC(=O)C2CC3CCC2C3)c(OC)cc1Cl` (stereo unspecified): 3.5 µg/mL (≈ 11.3 µM).
Regarding `CCCc1ncc(C(O)c2ccccc2OC)n1C` (stereo unspecified), the kinetic solubility was over 39.1 µg/mL.
Next, `COc1ccc(C(=O)OCc2cc(=O)n3ccsc3n2)cc1F`: 4 µg/mL (≈ 12 µM).
Molecule `COc1ccccc1Nc1nc(N)nc(CN2CCCCC2)n1` returned a kinetic solubility of over 47.2 µg/mL.
The molecule `Cc1cc(C)cc(C(=O)Nc2ccncc2)c1` showed a kinetic solubility of over 33.9 µg/mL.
`CCc1ccc(OCC(=O)O/N=C(\N)c2ccccn2)cc1` gave a solubility (kinetic) of 37.9 µg/mL (≈ 127 µM).
Next, `CCCCNC(=O)c1ccc(CS(=O)(=O)c2ccc(C)cc2)o1`: over 50.3 µg/mL; `CN(C)c1nc(F)c(F)c(S(=O)(=O)c2ccccc2)c1F`: 12.4 µg/mL (≈ 39.2 µM).
As to `CCCc1[nH]n(-c2nc3ccccc3s2)c(=O)c1C=NCCCOC`, the solubility (kinetic) is over 53.8 µg/mL.
Next, `COc1cc(C=O)ccc1Oc1ccc(S(=O)(=O)N2CCOCC2)cc1[N+](=O)[O-]`: 28.7 µg/mL (≈ 67.9 µM); `Cc1ccc(-c2nc(=S)c3c(n2Cc2cccnc2)CC(C)(C)OC3)cc1`: over 56.6 µg/mL; `Cc1cc2sc(NC(=O)c3ccco3)nc2cc1Cl`: 0.6 µg/mL (≈ 2.05 µM).
The molecule `O=C(COC(=O)c1c(Cl)cccc1Cl)NCc1cccs1` yielded a kinetic solubility of over 51.6 µg/mL.
Next, `O=C(Oc1ccc([N+](=O)[O-])cc1)C1CC(=O)N(c2ccc3c(c2)OCCO3)C1` (stereo unspecified): over 57.7 µg/mL.
Next, `CCN(Cc1ccncc1)C(=O)c1ccc(Br)o1`: over 46.4 µg/mL; `Cc1ccc2nc(SCC(=O)Nc3nonc3N)[nH]c2c1`: 39 µg/mL (≈ 128 µM).
`O=C(O)/C=C/C(=O)Nc1ccc(OC(F)(F)F)cc1` came in with a solubility (kinetic) of 38.8 µg/mL (≈ 141 µM).
Molecule `Cc1ccc(O)c(NC(=O)c2cc(-c3cccs3)on2)c1` returned a solubility (kinetic) of 0.6 µg/mL (≈ 2 µM).
Next, `N#CCc1ccc(NC(=O)Nc2cccc3ccccc23)cc1`: 0.6 µg/mL (≈ 1.99 µM); `Cl.O=C(COc1ccc(F)cc1)NCCCn1ccnc1`: 39.1 µg/mL; `CCc1ccc(N(CC(=O)N2CCOCC2)S(C)(=O)=O)cc1`: over 49 µg/mL.
Next, `CCCCC(=O)Nc1ccc(C2C(=O)c3ccccc3C2=O)cc1`: 44 µg/mL (≈ 137 µM).
Next, `COc1ccc(C(=O)NCCSCc2ccc(Cl)cc2)cc1OC`: 3.9 µg/mL (≈ 10.7 µM); `Cc1ccc(OCCN2CCCC2)cc1.O=C(O)C(=O)O`: over 44.3 µg/mL; `COc1ccc(C(=O)Nc2cccc3nc(C)ccc23)c(OC)c1`: 11.7 µg/mL (≈ 36.3 µM).
Molecule `Cc1cccc(C)c1NC(=O)CCCCCC1NC(=O)NC1C` (stereo unspecified) registered a solubility (kinetic) of over 47.6 µg/mL.
Next, `COC(=O)[C@H](C)NC(=O)Nc1cccc(Br)c1`: over 45.2 µg/mL; `COc1cccc2[nH]c3c(=O)[nH]cnc3c12`: over 32.3 µg/mL.
